The supplement of paper PMC10307832

What was measured:
Assay in all cases: relative viability (nuclei count vs DMSO), 5 days (fraction); higher = more cells survive
[1] = compound: CC1=CC=C(C=C1)C(=O)CN2C3=C(CCCC3)SC2=N [Pifithrin_alpha] + CC1(C)CCC(c2ccc(Cl)cc2)=C(CN2CCN(c3ccc(C(=O)NS(=O)(=O)c4ccc(N[C@H](CCN5CCOCC5)CSc5ccccc5)c(S(=O)(=O)C(F)(F)F)c4)cc3)CC2)C1 [Navitoclax] (partner 0.5 µM)
Method in brief: (§1)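 After 5 days of treatment, lung cancer cells in 1536-well plates were fixed and stained in a single step (final 0.05% Triton X-100, 1% formaldehyde, 1 ug/ml Hoechst) and their nuclei counted on 4× images. Treatment had been applied by pin tool the day after seeding as one drug alone or as a fixed anchor-drug dose with five library-drug doses (not always all listed) in √10 steps. Relative viability is the nuclei count of treated wells divided by that of vehicle wells, and values are medians of duplicate plates.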

Axitinib + Pictilisib = compound: CNC(=O)c1ccccc1Sc1ccc2c(/C=C/c3ccccn3)n[nH]c2c1 [Axitinib] + CS(=O)(=O)N1CCN(Cc2cc3nc(-c4cccc5[nH]ncc45)nc(N4CCOCC4)c3s2)CC1 [Pictilisib] (partner 1 µM)
Method in brief: as §1

Axitinib + Luminespib = compound: CNC(=O)c1ccccc1Sc1ccc2c(/C=C/c3ccccn3)n[nH]c2c1 [Axitinib] + CCNC(=O)c1noc(-c2cc(C(C)C)c(O)cc2O)c1-c1ccc(CN2CCOCC2)cc1 [Luminespib] (partner 0.01 µM)
Method in brief: as §1

Cell Line	relative viability ([1]; first compound 1 µM)	relative viability ([1]; first compound 3.162 µM)	relative viability ([1]; first compound 10 µM)	relative viability ([1]; first compound 31.62 µM)	relative viability ([1]; first compound 100 µM)	relative viability (Axitinib + Pictilisib; first compound 0.005 µM)	relative viability (Axitinib + Pictilisib; first compound 0.01581 µM)	relative viability (Axitinib + Pictilisib; first compound 0.05 µM)	relative viability (Axitinib + Pictilisib; first compound 0.1581 µM)	relative viability (Axitinib + Pictilisib; first compound 0.5 µM)	relative viability (Axitinib + Luminespib; first compound 0.005 µM)	relative viability (Axitinib + Luminespib; first compound 0.01581 µM)	relative viability (Axitinib + Luminespib; first compound 0.05 µM)	relative viability (Axitinib + Luminespib; first compound 0.1581 µM)	relative viability (Axitinib + Luminespib; first compound 0.5 µM)
NCI-H1650	1.31	1.15	0.973	0.675	0.865	0.624	0.36	0.644	0.529	0.585	0.195	0.194	0.192	0.203	0.236
NCI-H1651	1.05	1.06	0.924	0.604	0.865	0.631	0.503	0.665	0.576	0.567	0.941	0.965	1.03	0.745	1
NCI-H1666	0.84	0.61	0.432	0.635	0.354	0.414	0.459	0.433	0.512	0.584	0.974	0.975	1.01	1.03	0.957
NCI-H1734	0.892	0.95	0.796	0.745	0.734	0.462	0.432	0.493	0.439	0.436	0.19	0.221	0.212	0.2	0.191
NCI-H1755	0.935	0.973	0.888	0.628	0.966	0.482	0.418	0.55	0.4	0.454	0.527	0.63	0.533	0.364	0.428
NCI-H1792	0.438	0.753	0.339	0.325	0.529	0.311	0.251	0.213	0.275	0.271	0.555	0.34	0.325	0.417	0.418
NCI-H1793	0.395	0.282	0.382	0.339	0.339	0.258	0.253	0.326	0.307	0.256	0.148	0.23	0.16	0.187	0.169
NCI-H1915	0.791	0.793	0.788	–	0.801	0.966	0.994	0.999	0.888	0.88	0.787	0.795	0.902	0.84	0.861
NCI-H1944	1.11	1.04	0.946	–	1.02	0.356	0.336	0.357	0.351	0.357	0.755	0.726	0.717	0.738	0.769
NCI-H1975	0.918	0.848	0.621	0.616	0.686	0.334	0.311	0.365	0.317	0.377	0.244	0.337	0.192	0.198	0.257
NCI-H1993	–	0.79	0.594	0.718	0.639	0.763	0.952	0.805	0.772	0.781	1.04	0.918	0.949	0.881	0.823
NCI-H2009	1.24	1.1	1.05	0.784	0.957	0.875	0.877	1	0.868	1.04	1.11	1.12	1.02	1.07	1.16
NCI-H2023	0.914	0.968	0.8	0.676	0.822	0.232	0.195	0.267	0.222	0.272	0.76	0.942	0.752	0.745	0.97
NCI-H2085	1.06	1.22	1.08	0.876	1.04	0.457	0.467	0.441	0.507	0.373	0.451	0.389	0.404	0.502	0.415
NCI-H2087	0.948	1.04	0.998	0.742	0.715	0.982	0.848	0.992	0.856	0.769	0.162	0.202	0.177	0.176	0.172
NCI-H2126	0.787	0.8	0.73	0.738	0.771	0.457	0.475	0.504	0.522	0.499	0.82	0.921	0.963	0.876	0.912
NCI-H2170	0.557	0.512	0.576	0.494	0.535	0.316	0.268	0.327	0.305	0.259	0.718	0.639	0.743	0.647	0.688
NCI-H2228	0.88	0.839	0.804	0.599	0.729	0.472	0.391	0.416	0.486	0.622	0.142	0.118	0.147	0.174	0.138
NCI-H2347	0.695	0.87	0.786	0.551	0.814	0.605	0.584	0.876	0.855	0.783	0.299	0.432	0.948	0.323	0.505
NCI-H2405	–	0.81	0.813	0.635	0.689	0.422	0.534	0.658	0.465	0.383	0.863	0.809	0.839	0.779	0.866
NCI-H3122	1.03	1.02	1.03	0.845	1.05	0.579	0.592	0.627	0.594	0.598	0.0794	0.103	0.092	0.0739	0.0873
PC-3 [JPC-3]	0.749	0.74	0.746	0.789	0.726	0.729	–	0.672	0.715	0.853	0.663	0.653	0.712	0.739	0.779
PC-14	1.01	0.988	0.988	0.881	0.847	0.919	0.699	0.676	0.731	0.834	0.295	–	0.171	0.141	0.164
RERF-LC-KJ	0.591	0.619	0.5	0.824	0.412	0.583	0.654	0.544	0.603	0.51	1.23	1.2	1.17	1.21	1.42
SK-LU-1	1.07	1.07	1.07	0.626	0.823	0.553	0.569	0.558	0.567	0.659	0.224	0.21	0.188	0.201	0.238
SK-MES-1	1.19	1.17	1.16	0.829	0.924	0.303	0.391	0.337	0.409	0.481	0.774	0.781	0.746	0.766	0.825
SW 1573	1.06	1.03	1.18	0.923	0.893	0.507	0.462	0.576	0.444	0.463	0.325	0.253	0.424	0.586	0.13
UMC-11	0.288	0.312	0.312	0.337	0.331	0.818	0.82	0.857	0.835	0.627	1.01	1.03	1.07	1.04	1.14
